Measured values from patent publication US9629816B2, “Small molecule therapeutic compounds targeting thioesterase deficiency disorders and methods of using the same” (The United States of America, as represented by the …, priority 2011, dated 2017).
Values joined by “and” are separate entries in the source; they are usually repeats but may differ in a detail not shown here. Equal values may be shown once.

Experiments:
INCL fibroblasts [1] = experiment: MTT viability of cultured INCL fibroblasts; type: cell-based, human; details: 48 hours of treatment; viability as percent of untreated control (FIG. 4A-C)
Procedure: Ten out of the twelve HA-derivative compounds listed in Table 1 were tested to determine whether they adversely affected the viability of cultured cells from INCL patients. […] Briefly, following treatment with HA-derivatives INCL cells were incubated with Thiazolyl Blue Tetrazolium […] for 4 hours at 37° C. Formazan crystals thus formed were dissolved in acidified isopropanol and absorption was measured at 570 nm. Viability was expressed as percent of untreated control.
Briefly, normal fibroblasts (GM 00498) were obtained from the Coriell Institute of Medical Research, USA. PPT1-deficient INCL fibroblasts were isolated from skin biopsy samples of INCL patients admitted to an ongoing clinical protocol (#01-CH-0086) approved by the Institutional Review Board (IRB) of the National Institute of Child Health and Human Development (NICHD) at the National Institute of Health (NIH). […] The fibroblasts were cultured in the presence or absence of varying concentrations of each of the HA-derivatives for 48 hours, after which the viability of the cells was determined using the MTT-Cell Viability Assay by T. Mossman, (Rapid colorimetric assay for cellular growth and survival. J. Immunol. Method. 65 (1983) 55-63).

INCL fibroblasts [2] = experiment: Depletion of [35S]cysteine-labeled lipid thioesters in INCL fibroblasts; type: cell-based, human; details: treatment for 24 and 48 hours vs untreated control cells (FIG. 7)
Procedure: Thus, this derivative was chosen for more extensive study of its ability to hydrolyze […] proteins, and to deplete lipid-extractable [^35S]cysteine thioesters from fibroblasts and lymphoblasts. INCL fibroblasts were obtained and cultured as described in Example 4. The cells were then labeled with [^35S]cysteine. Briefly, following incubation for six hours in medium lacking serum and cysteine/cystine, the cells were washed and then re-cultured for varying lengths of time in medium containing NtBuHA, with a change of medium every 12 hours. As controls, [^35S]cysteine-labeled cells were cultured in drug-free medium as well as medium containing 1M HA. Following incubation, cells were washed twice with cold PBS and then centrifuged at 2,250 g at 4° C. for 5 minutes. Lipid thioesters were then extracted from the cells and subject to analysis by high-performance thin layer chromatography. Briefly, the extracted fatty acyl esters were dissolved in chloroform:methanol (1:1) and an aliquot applied to a TLC plate and resolved using a mixture of chloroform:methanol:water (65:25:4). The plates were then dried and autoradiographs obtained.

INCL fibroblasts [3] = experiment: TEM analysis of GRODs in cultured INCL fibroblasts; type: cell-based, human; details: 250 μM for 3 weeks vs untreated fibroblasts (FIG. 10)
Procedure: Transmission electron microsocopy (TEM) of INCL lymphoblasts and fibroblasts was performed. Briefly, cells were first treated with 250 μM NtBuHA for 3 weeks. Medium was replaced with fresh 250 μM of NtBuHA at every 72 hours. After treatment, cells were fixed with 2.5% glutaraldehyde in sodium phosphate buffer, washed three times with Millonig's phosphate buffer and stained with 2.5% uranyl acetate. Ultra-thin sections were then prepared using AO Reichert Ultracut ultramicrotome, stained with lead citrate and examined by using Zeiss EM10 CA.
Accordingly, untreated- and NtBuHA-treated cultured INCL lymphoblasts were analyzed using TEM.

PPT1-KO mice [4] = experiment: Blood methemoglobin level in PPT1-KO mice; type: in vivo, mouse
Procedure: The ability of the HA-derivative NtBuHA to increase methemoglobin levels was tested by placing PPT1-KO mice on a diet containing NtBuHA. After three months on the diet, the level of methemoglobin in the animal's blood was measured.

PPT1-KO mice [5] = experiment: Open field test, exploratory behavior of PPT1-KO mice; type: in vivo, mouse; details: 6-month and 8-month old PPT1-KO mice (FIG. 19E-F)
From the text: Since NtBuHA functionally mimics PPT1, the inventors tested 6-month and 8-month old wild-type, untreated- and NtBuHA-treated PPT1-KO mice for motor coordination and exploratory behavior. The Rotarod Performance Test, which measures parameters such as riding time (seconds) and/or endurance was used to measure motor coordination. The open field test was utilized to evaluate the exploratory behavior.

PPT1-KO mice [6] = experiment: Western blot of ER-stress and oxidative-stress markers in brain lysates of PPT1-KO mice; type: in vivo, mouse
Procedure: Western blot analysis was performed as using standard methodology. Briefly 30 μg of protein was resolved in 4-12% Bis tris gel (Invitrogen) and electro-transferred in PVDF membrane. The membranes were blocked with 5% non fat dried milk for 1 hour at room temperature and were then probed overnight with primary antibody at 4 C. After washing the blots were incubated with horseradish peroxidase conjugated secondary antibody (Santacruz Biotechnology) for 1 hour at room temperature and developed using enhanced chemiluminescences detection reagents (Pierce). Primary antibodies used in this study were caspase-3, caspase-9 (cell signaling) SOD2, catalase, β-Actin (US Biologicals).
It has previously reported that endoplasmic reticulum (ER-) and oxidative-stress contribute to neuropathology in INCL patients. […] Therefore, the inventors sought to determine whether NtBuHA-treatment of PPT1-KO mice ameliorate the ER- and oxidative-stress in brain tissues of these mice. Accordingly, the levels of ER-stress markers Grp-78, Grp-94 and ATF6 were determined by Western blot analysis of brain lysates. […] Western blot analysis of brain lysates from NtBuHA-treated and untreated PPT1-KO mice was also performed to determine the levels of superoxide dismutase-2 (SOD2) and catalase, which increases with elevated oxidative-stress.

SMILES: CC(C)(C)NO [NtBuHA, N-(tert-Butyl)hydroxylamine]
- toxicity / viability of INCL cells (MTT) (INCL fibroblasts [1]): non-toxic
- intensity of [35S]cysteine-labeled lipid extractable thioester compounds (INCL fibroblasts [2]): significantly reduced intensity
- GRODs in INCL fibroblasts (INCL fibroblasts [3]): significantly lower number of GRODs with markedly reduced size and density
- % Methemoglobin (PPT1-KO mice [4]; individual NtBuHA-treated PPT1-KO mice, three months on diet, blood): 0% and 0.5% and 0.7% and 0.6%
- % Methemoglobin, Mean (PPT1-KO mice [4]; mean of 4 NtBuHA-treated PPT1-KO mice, three months on diet, blood): 0.45%
- effect on methemoglobin levels (PPT1-KO mice [4]; treatment up to three months): does not increase methemoglobin levels
- exploratory behavior (open field) (PPT1-KO mice [5]): retained near normal motor function (FIG. 19A-D) as well as exploratory behavior
- levels of SOD2 and catalase (PPT1-KO mice [6]; brain lysates vs untreated PPT1-KO mice (FIG. 14B)): significantly reduced the levels of both SOD2 and catalase
- levels of ER-stress markers Grp-78, Grp-94 and ATF6 (PPT1-KO mice [6]; brain tissues (FIG. 14A)): levels of all three ER-stress markers were reduced
